Literature values as cited in patent publication US9192579B2, “Sustained release drug delivery devices, methods of use, and methods of manufacturing thereof” (pSivida US, Inc., priority 2000, dated 2015).

System: CMV retinitis
Conditions: intravitreal injections of 200 to 400 μg once or twice weekly, AIDS patients

Nc1nc(O)c2ncn(COC(CO)CO)c2n1 [GCV, ganciclovir]
effect on CMV retinitis: temporary remission
